In patent publication US12344899B2, “Compositions and methods for therapeutics prescreening” (TECHNION RESEARCH & DEVELOPMENT FOUNDATION LIMITED, priority 2014, dated 2025):
Entries after “also recorded” stand apart in the source; their conditions may differ.

Columns and labels:
[1] = tested on: 4T1 breast cancer primary tumor; assay: Barcoded nanoparticles with different drugs injected simultaneously i.v.; barcode levels in live/dead tumor cells (FIG. 8); format: in vivo, BALB/c mice; conditions: for therapeutic effect rated from barcode distribution / drug barcode levels in the dead cells in comparison to the live cells: tumor biopsy 48 hours later; for therapeutic effect rated from barcode distribution: FIGS. 8A-E; for drug barcode levels in the dead cells in comparison to the live cells: cells sorted live/dead
Description: Barcoded nanoparticles containing control compounds or different drugs: placebo (A), caffeine (B), Cisplatin (C), Doxorubicin (D) and Gemcitabine (E), were injected simultaneously intravenously to BALB/c mice bearing a primary tumor in the hind thigh. 48 hours later, enabling the particle to accumulate in the tumor and perform the therapeutic activity, a biopsy was taken from the tumor. The biopsy tissue was then dissociated into a single-cell suspension, and the cells were screened according to their viability (live/dead). […] (F) The potency of the drugs was calculated by dividing the number of barcodes extracted from dead cells by the number of barcodes extracted from live cells for each drug. The values are presented in logarithmic scale.
In vivo transfection: 100 μl of 10^6cells/ml of 4T1 (breast cancer) was injected subcutaneous to 10 weeks balb/c female mice. About […] later (when the primary tumor was massive enough), 100 μl of liposome solution was injected intravenous. 36 hrs later, the mouse was sacrificed and its organs (+tumor) were taken in ice for further steps.
In the present study, ovarian tumors are expanded in hESC teratomas in SCID/beige mice, as previously described (Burgos-Ojeda, ibid.). Barcoded nanoparticles loaded with anti-cancer drugs are administered intravenously. Evaluation of the therapeutic task of the nanoparticle is evaluated after 48 hours which enables accumulation in the tumor and carrying out a therapeutic task. […] Post-mortem histological evaluation of the tissue is used to study the tumor bio-distribution. A biopsy sample is then dissociated into a single-cell suspension and the cells are sorted, using antibodies, according to cell subpopulation (including, CD45, CD11B, F4/80, CD13, REST) and viability (live/dead).
Barcoded nanoparticles containing five different drugs or control compounds (FIG. 8 depicts Placebo, Caffeine, Cisplatin, Doxorubicin and Gemcitabine), were injected simultaneously intravenously to BALB/c mice bearing a primary tumor in the hind thigh. 48 hours later, a biopsy was taken from the tumor. The biopsy tissue was then dissociated into a single-cell suspension, and the cells were screened according to their viability (live/dead).

4T1 breast cancer tumor = assay: Therapeutic treatment validating the barcoding analysis (FIG. 9); format: in vivo, mice; conditions: for proliferation index (anti-Ki67 immunohistochemistry): tumors extracted 24 days after starting treatment, 125 mg/kg Gemcitabine i.v. weekly
From the text: FIG. 9A-D. Therapeutic efficacy based on barcoding analysis. FIGS. 9A-B and D are bar graphs comparing tumor volume change between different therapeutic groups. Each group got a weekly dose of chemo drug Doxorubicin, Cisplatin, or Gemcitabine. The control group got saline. Representative tumor dimensions of each group. The tumor was extracted […] after starting the treatment. Tumor/Body weight of each group.
To validate the barcoding analysis of the three chemotherapeutic drugs—Doxorubicin, Cisplatin and Gemcitabine, therapeutic treatment was conducted. The experiment included 4 groups, each containing 6 mice. Each group was treated with single drug for 24 days, starting 10 days post tumor induction. Each dose was given intravenous once a week. Each group was treated with either 5 mg/kg of Doxorubicin, 6 mg/kg of Cisplatin, 125 mg/kg of Gemcitabine or 100 μl of saline as a control. Tumors volumes were measured with caliper and calculated as length/2*(width)^2. […] 24 days after starting the treatment, the tumor of each mouse was extracted for further analysis. […] The tumor weight parameter reflects the effectiveness of the drug to inhibit and damage the tumor growth. The body weight parameter reflects the influence of the drug on the body or how severe are the side effects of the drug. […] To check differences in the tissue level between the different groups, all the tumors were studied histologically. Tissue slides from the tumors were stained with hematoxylin and eosin. […] Additionally, tissue slides were immunohistochemically stained with rabbit monoclonal anti-Ki67 antibody (SP6; Thermo Scientific, Fremont, Calif.) to determine proliferation index (not shown).

[2] = 5 mg/kg Doxorubicin, 6 mg/kg Cisplatin

SMILES | therapeutic effect rated from barcode distribution ([1]; drug in barcoded nanoparticles) | proliferation index (anti-Ki67 immunohistochemistry) (4T1 breast cancer tumor; [2]) [%] | drug barcode levels in the dead cells in comparison to the live cells [1] | tumor/body weight ratio (4T1 breast cancer tumor; at sacrifice, FIG. 9(C), weekly i.v. dosing) | tumor volume change / tumor growth (4T1 breast cancer tumor; i.v. once a week for 24 days, 5 mg/kg Doxorubicin, 6 mg/kg Cisplatin, 125 mg/kg Gemcitabine, FIG. 9(A)) | barcodes accumulated in the dead cells, more compare to the live cells ([1]; drug in barcoded nanoparticles, 48 hours, FIG. 8(E))
Cn1c(=O)c2c(ncn2C)n(C)c1=O [Caffeine] | almost no effect |  |  |  |  | 
N.N.[Cl][Pt][Cl] [Cisplatin] | clear therapeutic effect | 65 | Elevated levels |  |  | 
COc1cccc2c1C(=O)c1c(O)c3c(c(O)c1C2=O)C[C@@](O)(C(=O)CO)C[C@@H]3O[C@H]1C[C@H](N)[C@H](O)[C@H](C)O1 [Doxorubicin] | clear therapeutic effect | 90 |  |  |  | 
Nc1ccn([C@@H]2O[C@H](CO)[C@@H](O)C2(F)F)c(=O)n1 [Gemcitabine] | more effective than cisplatin; also recorded: most efficient drug | 40 | Elevated levels | minimum tumor/body weight ratio | significantly attenuated the growth of the tumors | 6,000
